Measured values taken from ChEMBL document CHEMBL3044773, “Adulticidal activity of phthalides identified in Cnidium officinale rhizome to B- and Q-biotypes of Bemisia tabaci” (2011).
Converted amounts (≈) assume the structure as drawn.

Tests used:
Format in all cases: functional
Bemisia tabaci [1] = experiment: Biotype susceptibility ratio, ratio of LC50 for female adult Bemisia tabaci biotype Q (sweet potato whitefly) to LC50 for female adult Bemisia tabaci biotype B
Bemisia tabaci [2] = experiment: Adulticidal activity against female Bemisia tabaci biotype B (sweet potato whitefly) in cucumber leaves assessed as residual contact toxicity treated for 30 secs before adult insect infestation measured after 24 hr by leaf dip bioassay; details: foliar
Bemisia tabaci [3] = experiment: Adulticidal activity against female Bemisia tabaci biotype Q (sweet potato whitefly) in cucumber leaves assessed as residual contact toxicity treated for 30 secs before adult insect infestation measured after 24 hr by leaf dip bioassay; details: foliar

Row | SMILES | RatioLC50 (Bemisia tabaci [1]) | LC50 (Bemisia tabaci [2]) [µg/mL] | LC50 (Bemisia tabaci [3]) [µg/mL]
1 | CCCC[C@@H]1OC(=O)c2ccccc21 [(3S)-BUTYLPHTHALIDE] | 1 | 339 (≈ 1780 µM) | 338 (≈ 1780 µM)
2 | C/C(=N\C#N)N(C)Cc1ccc(Cl)nc1 [ACETAMIPRID] | 31.4 | 11.6 (≈ 52.1 µM) | 364 (≈ 1640 µM)
3 | CC1(C)C(C=C(Cl)Cl)C1C(=O)OC(C#N)c1cccc(Oc2ccccc2)c1 (stereo not drawn) [ALPHA-CYPERMETHRIN] | 1.4 | 337 (≈ 809 µM) | 482 (≈ 1160 µM)
4 | COP(=O)(OC)OC=C(Cl)Cl [DICHLORVOS] | 1.2 | 182 (≈ 825 µM) | 224 (≈ 1010 µM)
5 | O=[N+]([O-])/N=C1\NCCN1Cc1ccc(Cl)nc1 [IMIDACLOPRID] | >428.6 | 7 (≈ 27.4 µM) | > 3000
6 | CCC/C=C1\OC(=O)C2=C1CCC=C2 [LIGUSTILIDE] | 0.9 | 268 (≈ 1410 µM) | 254 (≈ 1340 µM)
7 | CCN(CC)c1nc(C)cc(OP(=S)(OC)OC)n1 [PIRIMIPHOS METHYL] | 1.3 | 188 (≈ 616 µM) | 235 (≈ 770 µM)
8 | CC(C)(C)c1ccc(CSc2cnn(C(C)(C)C)c(=O)c2Cl)cc1 [PYRIDABEN] | 1.6 | 129 (≈ 354 µM) | 211 (≈ 578 µM)
9 | CN1COCN(Cc2cnc(Cl)s2)/C1=N\[N+](=O)[O-] [THIAMETHOXAM] | >1764.7 | 1.7 (≈ 5.83 µM) | > 3000
10 | CCC/C=C1\OC(=O)c2ccccc21 [Z-butylidenephthalide] | 2.3 | 254 (≈ 1350 µM) | 586 (≈ 3110 µM)
